# Patent US4204990A, “Somatostatin analogues” (American Home Products Corporation, priority 1978, dated 1980)
# Structures can show the parent of a compound that is named as a salt. Positions of bridges follow the written chain, without caps; N, C: chain ends. Non-standard residues stand in square brackets, D forms with d. Residues, ends and D or L forms follow the SMILES beside them.
# Columns and labels:
# Format in all cases: in vivo, rat
# growth hormone [1] = assay: Duration of activity: plasma growth hormone by radioimmunoassay at hours after SC injection; settings: for GH (duration of activity) / GH (duration of growth hormone suppression): 1,000 μg/kg
# Protocol: The animals were kept in separate cages. Twenty minutes before the end of the test, 50 mg/kg Nembutal® was administered to all the rats (i.p.). […] Plasma was separated and growth hormone concentration was determined by radio immunoassay. Comparisons between the control and experimental growth hormone values were evaluated by the Student "t" test and statistical significance at the 0.05 level or lower was used as the index of activity. Based upon that test [Brazeau et al., Science, 170, 77 (1973)], the prolonged growth hormone suppression by the compounds of this invention was established. The data obtained for the product of Example 1, illustrative of the duration of activity of the other compounds of this invention, is as follows: […]
# insulin = assay: Arginine-stimulated insulin level in Nembutal-anaesthetised rats after subcutaneous test compound; settings: p<0.01
# Protocol: (§1) Albino male rats were administered Nembutal intraperitoneally at a dose of 50 milligrams per kilogram. Fifteen minutes later a subcutaneous injection of the test compound or physiological saline was administered. Ten minutes later 0.5 milliliters of arginine (300 milligrams per milliliter, pH 7.2) is injected into the heart. Five minutes after receipt of the arginine the rats are decapitated and blood is collected into trasylol-EDTA. An appropriate aliquot was assayed for growth hormone, insulin and glucagon.
# glucagon = assay: Arginine-stimulated glucagon level in Nembutal-anaesthetised rats after subcutaneous test compound
# Protocol: as §1
# growth hormone [2] = assay: Arginine-stimulated growth hormone level in Nembutal-anaesthetised rats after subcutaneous test compound; settings: for GH: p<0.01
# Protocol: as §1
# [3] = dose 2,000 μg/kg, control 34 ± 4
# [4] = dose 2,000 μg/kg, control 38 ± 6
# [5] = dose 2,000 μg/kg, control 220 ± 17
compound,measurement,setting,value
"C[C@@H](O)[C@@H]1NC(=O)[C@H](Cc2ccccc2)NC(=O)[C@H]([C@@H](C)O)NC(=O)[C@H](CCCCN)NC(=O)[C@@H](Cc2c[nH]c3ccccc23)NC(=O)[C@H](Cc2ccccc2)NC(=O)[C@H](Cc2ccccc2)NC(=O)[C@@H](CCCNC(=N)N)NC(=O)[C@H](CCCNC(=N)N)NC(=O)[C@@H](N)CSSC[C@@H](C(=O)O)NC(=O)[C@H](CO)NC1=O [Ex. 2, L-Cysteinyl-L-arginyl-D-arginyl-L-phenylalanyl-L-phenylalanyl-D-tryptophyl- L-lysyl-L-threonyl-L-phenylalanyl-L-threonyl-L-seryl-L-cysteine cyclic (1→12)-disulfide tetraacetate (salt)] (H-CR[dR]FF[dW]KTFTSC-OH; disulfide 1-12)",GH (duration of activity),"growth hormone [1]; 2 hours, control 303 ± 53, p<0.001",54 ± 11 ng/mL
same,GH (duration of activity),"growth hormone [1]; 4 hours, control 73 ± 7",83 ± 9 ng/mL
same,INS,"insulin; dose 1,000 μg/kg, control 227 ± 19",89 ± 8 µU/mL
same,GLUN,"glucagon; dose 1,000 μg/kg, control 61 ± 7",44 ± 8 pg/mL
same,GH,"growth hormone [2]; dose 1,000 μg/kg, control 141 ± 14",4 ± 3 ng/mL
"C[C@@H](O)[C@@H]1NC(=O)[C@H](Cc2ccccc2)NC(=O)[C@H]([C@@H](C)O)NC(=O)[C@H](CCCCN)NC(=O)[C@@H](Cc2c[nH]c3ccccc23)NC(=O)[C@H](Cc2ccccc2)NC(=O)[C@H](Cc2ccccc2)NC(=O)[C@@H](CO)NC(=O)[C@H](CCCNC(=N)N)NC(=O)[C@@H](N)CSSC[C@@H](C(=O)O)NC(=O)[C@H](CO)NC1=O [Ex. 3, L-Cysteinyl-L-arginyl-D-seryl-L-phenylalanyl-L-phenylalanyl-D-tryptophyl-L- lysyl-L-threonyl-L-phenylalanyl-L-threonyl-L-seryl-L-cysteine cyclic (1→12)-disulfide triacetate (salt)] (H-CR[dS]FF[dW]KTFTSC-OH; disulfide 1-12)",GH (duration of activity),"growth hormone [1]; 2 hours, control 290 ± 64, p<0.02",91 ± 29 ng/mL
same,GH (duration of activity),"growth hormone [1]; 4 hours, control 133 ± 38, p<0.1 (not significant)",57 ± 12 ng/mL
same,INS,insulin; [3],8 ± 1 μU/ml
same,GLUN,glucagon; [4],26 ± 5 pg/mL
same,GH,growth hormone [2]; [5],37 ± 9 ng/mL
"C[C@@H](O)[C@@H]1NC(=O)[C@H](Cc2ccccc2)NC(=O)[C@H]([C@@H](C)O)NC(=O)[C@H](CCCCN)NC(=O)[C@@H](Cc2c[nH]c3ccccc23)NC(=O)[C@H](Cc2ccccc2)NC(=O)[C@H](Cc2ccccc2)NC(=O)[C@@H](Cc2c[nH]cn2)NC(=O)[C@H](CCCNC(=N)N)NC(=O)[C@@H](N)CSSC[C@@H](C(=O)O)NC(=O)[C@H](CO)NC1=O [Ex. 4, L-Cysteinyl-L-arginyl-D-histidyl-L-phenylalanyl-L-phenylalanyl-D-tryptophyl-L-lysyl-L-threonyl-L-phenylalanyl-L-threonyl-L-seryl-L-cysteine cyclic (1→12) disulfide tetra-acetate (salt)] (H-CR[dH]FF[dW]KTFTSC-OH; disulfide 1-12)",GH (duration of activity),"growth hormone [1]; 2 hours, control 82 ± 25, p<0.05",24 ± 5 ng/mL
same,GH (duration of activity),"growth hormone [1]; 4 hours, control 76 ± 28, p<0.1 (not significant)",20 ± 7 ng/mL
same,GH (duration of activity),"growth hormone [1]; 5 hours, control 171 ± 38, p<0.02",54 ± 11 ng/mL
same,GH (duration of activity),"growth hormone [1]; 6 hours, control 73 ± 10",54 ± 13 ng/mL
same,INS,"insulin; dose 500 μg/kg, control 280 ± 15",127 ± 22 μU/ml
same,GLUN,"glucagon; dose 500 μg/kg, control 44 ± 6",29 ± 5 pg/mL
same,GH,"growth hormone [2]; dose 500 μg/kg, control 119 ± 29",6 ± 1 ng/mL
"C[C@@H](O)[C@@H]1NC(=O)[C@H](Cc2ccccc2)NC(=O)[C@H]([C@@H](C)O)NC(=O)[C@H](CCCCN)NC(=O)[C@@H](Cc2c[nH]c3ccccc23)NC(=O)[C@H](Cc2ccccc2)NC(=O)[C@H](Cc2ccccc2)NC(=O)[C@@H](Cc2ccc(O)cc2)NC(=O)[C@H](CCCCN)NC(=O)[C@@H](N)CSSC[C@@H](C(=O)O)NC(=O)[C@H](CO)NC1=O [Ex. 5, L-Cysteinyl-L-lysyl-D-tyrosyl-L-phenylalanyl-L-phenylalanyl-D-tryptophyl-L- lysyl-L-threonyl-L-phenylalanyl-L-threonyl-L-seryl-L-cysteine cyclic (1→12) disulfide] (H-CK[dY]FF[dW]KTFTSC-OH; disulfide 1-12)",GH (duration of growth hormone suppression),"growth hormone [1]; 2 hours, control 84 ± 17, p<0.01",27 ± 5 ng/mL
same,GH (duration of growth hormone suppression),"growth hormone [1]; 2 hours, second experiment, control 80 ± 12",72 ± 21 ng/mL
same,GH (duration of growth hormone suppression),"growth hormone [1]; 4 hours, control 84 ± 22, p<0.05",33 ± 4 ng/mL
same,GH (duration of growth hormone suppression),"growth hormone [1]; 5 hours, control (printed 2 hours) 141 ± 51",113 ± 27 ng/mL
C[C@@H](O)[C@@H]1NC(=O)[C@H](Cc2ccccc2)NC(=O)[C@H]([C@@H](C)O)NC(=O)[C@H](CCCCN)NC(=O)[C@@H](Cc2c[nH]c3ccccc23)NC(=O)[C@H](Cc2ccccc2)NC(=O)[C@H](Cc2ccccc2)NC(=O)[C@@H](CCCNC(=N)N)NC(=O)[C@H](CCCCN)NC(=O)[C@@H](N)CSSC[C@@H](C(=O)O)NC(=O)[C@H](CO)NC1=O [Ex. 6] (H-CK[dR]FF[dW]KTFTSC-OH; disulfide 1-12),GH (duration of activity),"growth hormone [1]; 2 hours, control 148 ± 25, p<0.01",53 ± 8 ng/mL
same,GH (duration of activity),"growth hormone [1]; 4 hours, control 73 ± 24, p<0.1",21 ± 4 ng/mL
same,INS,insulin; [3],5 ± 1 µU/mL
same,GLUN,glucagon; [4],32 ± 5 pg/mL
same,GH,growth hormone [2]; [5],34 ± 8 ng/mL
C[C@@H](O)[C@@H]1NC(=O)[C@H](CCCCN)NC(=O)[C@@H](Cc2c[nH]c3ccccc23)NC(=O)[C@H](Cc2ccccc2)NC(=O)[C@H](Cc2ccccc2)NC(=O)[C@@H](Cc2ccc(O)cc2)NC(=O)[C@H](CCCNC(=N)N)NC(=O)[C@@H](N)CSSC[C@H](C(=O)O)NC(=O)[C@H](CO)NC(=O)[C@H]([C@@H](C)O)NC(=O)[C@H](Cc2ccccc2)NC1=O [L-Cysteinyl-L-arginyl-D-tyrosyl-L-phenylalanyl-L-phenylalanyl-D-tryptophyl- L-lysyl-L-threonyl-L-phenylalanyl-L-threonyl-L-seryl-D-cysteine cyclic (1→12) disuflide] (H-CR[dY]FF[dW]KTFTS[dC]-OH; disulfide 1-12),Plasma GH,"growth hormone [1]; 500 μg/kg SC, 6 hours after injection, control 103 ± 17",152 ± 27 ng/mL
same,Plasma GH,"growth hormone [1]; 1,000 μg/kg SC, 2 hours after injection, control 542 ± 145, p<0.01",30 ± 5 ng/mL
same,Plasma GH,"growth hormone [1]; 1,000 μg/kg SC, 4 hours after injection, control 107 ± 25, p<0.01",37 ± 6 ng/mL
same,Plasma GH,"growth hormone [1]; 1,000 μg/kg SC, 6 hours after injection, control 103 ± 17",114 ± 22 ng/mL
same,duration of growth hormone suppression (in words),growth hormone [1]; summary of rat data,very prolonged activity in suppressing growth hormone blood levels
same,INS,"insulin; dose 100 μg/kg sc, control 43 ± 3",7 ± 2 µU/mL
same,INS,"insulin; dose 3,000 μg/kg sc, control 340 ± 17",48 ± 9 µU/mL
same,GLUN,"glucagon; dose 100 μg/kg sc, control 46 ± 6, p>0.05",31 ± 4 pg/mL
same,GLUN,"glucagon; dose 3,000 μg/kg sc, control 48 ± 5, p<0.01",23 ± 4 pg/mL
same,GH,"growth hormone [2]; dose 3,000 μg/kg sc, control 176 ± 33",17 ± 3 ng/mL
same,"reduction of secretion of growth hormone, insulin and glucagon (in words)",growth hormone [2]; summary of rat data,"effective agent for reducing secretion of growth hormone, insulin, and glucagon"
"C[C@H](N)C(=O)NCC(=O)N[C@H]1CSSC[C@@H](C(=O)O)NC(=O)[C@H](CO)NC(=O)[C@H]([C@@H](C)O)NC(=O)[C@H](Cc2ccccc2)NC(=O)[C@H]([C@@H](C)O)NC(=O)[C@H](CCCCN)NC(=O)[C@H](Cc2c[nH]c3ccccc23)NC(=O)[C@H](Cc2ccccc2)NC(=O)[C@H](Cc2ccccc2)NC(=O)[C@H](CC(N)=O)NC(=O)[C@H](CCCCN)NC1=O [SRIF, reference compound]",INS,"insulin; dose 200 μg/kg sc, control 43 ± 3",31 ± 2 µU/mL
same,GLUN,"glucagon; dose 200 μg/kg sc, control 46 ± 6, p<0.01",21 ± 4 pg/mL
